Assay results: patent US20200079773A1, “CARBOXYLIC ACID DERIVATIVES OF PYRIDOQUINAZOLINES USEFUL AS PROTEIN KINASE INHIBITORS” (ONCOSTELLAE, S.L., priority 2017, published 2020)

Key:
Format in all cases: biochemical
JAK3 = target: T1, JAK3 (Homo sapiens, UniProt P52333); test: Functional assay of protein kinases (Caliper mobility shift), JAK3; details: ATP 8 μM, 30 min incubation
T1 construct: purchased Carna Biosciences 08-046
Description: (§1) Functional Assays of Protein Kinases
(§2) The functional assays of protein kinases were carried out in 384-well plates using a final volume of 30 μl. […] The reaction was reads in a “Caliper EzReader LabChip 3000” (Caliper, Hopkinton, Mass.) reader, based on electrophoretic mobility of the fluorescent substrate and the phosphorylated product.
(§3) The inhibition percentages were calculated by comparison between control reactions, for 100% of inhibition and reactions with only DMSO for 0% of inhibition.

JAK1 = target: T2, JAK1 (Homo sapiens, UniProt P23458); test: Functional assay of protein kinases (Caliper mobility shift), JAK1; details: ATP 100 μM, 150 min incubation
T2 construct: purchased Carna Biosciences 08-144
T2 sequence (P23458 850-1154 limits assumed): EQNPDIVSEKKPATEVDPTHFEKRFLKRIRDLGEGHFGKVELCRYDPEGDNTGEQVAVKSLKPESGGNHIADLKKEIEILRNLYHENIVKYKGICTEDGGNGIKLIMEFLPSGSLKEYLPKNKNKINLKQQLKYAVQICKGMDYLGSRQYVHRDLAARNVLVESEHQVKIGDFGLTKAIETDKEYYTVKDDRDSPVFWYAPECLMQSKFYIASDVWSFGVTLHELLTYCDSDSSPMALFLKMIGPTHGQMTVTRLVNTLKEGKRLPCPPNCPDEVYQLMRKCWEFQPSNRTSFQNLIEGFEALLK
Description: as §1, §2, §3

JAK2 = target: T3, JAK2 (Homo sapiens, UniProt O60674); test: Functional assay of protein kinases (Caliper mobility shift), JAK2; details: ATP 300 μM, 30 min incubation
T3 construct: purchased Carna Biosciences 08-045
T3 sequence (O60674 826-1132 limits assumed): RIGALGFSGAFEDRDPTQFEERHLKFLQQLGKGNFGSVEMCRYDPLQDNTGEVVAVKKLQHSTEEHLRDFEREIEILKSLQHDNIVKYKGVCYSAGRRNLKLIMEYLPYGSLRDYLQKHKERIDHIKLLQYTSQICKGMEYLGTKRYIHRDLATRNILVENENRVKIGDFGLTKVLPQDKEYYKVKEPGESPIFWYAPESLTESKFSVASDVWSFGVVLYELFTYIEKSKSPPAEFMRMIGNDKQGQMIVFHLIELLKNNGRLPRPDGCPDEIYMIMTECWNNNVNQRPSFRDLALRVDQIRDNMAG
Description: as §1, §2, §3

Human MLK3 = target: T4, Human MLK3 (Homo sapiens, UniProt Q16584); test: MLK3 activity inhibition test (Reaction Biology kit, 33P ATP filter assay); details: MBP 10 μM, ATP 10 μM
T4 construct: purchased Reaction Biology MLK3
T4 sequence (Q16584 whole entry): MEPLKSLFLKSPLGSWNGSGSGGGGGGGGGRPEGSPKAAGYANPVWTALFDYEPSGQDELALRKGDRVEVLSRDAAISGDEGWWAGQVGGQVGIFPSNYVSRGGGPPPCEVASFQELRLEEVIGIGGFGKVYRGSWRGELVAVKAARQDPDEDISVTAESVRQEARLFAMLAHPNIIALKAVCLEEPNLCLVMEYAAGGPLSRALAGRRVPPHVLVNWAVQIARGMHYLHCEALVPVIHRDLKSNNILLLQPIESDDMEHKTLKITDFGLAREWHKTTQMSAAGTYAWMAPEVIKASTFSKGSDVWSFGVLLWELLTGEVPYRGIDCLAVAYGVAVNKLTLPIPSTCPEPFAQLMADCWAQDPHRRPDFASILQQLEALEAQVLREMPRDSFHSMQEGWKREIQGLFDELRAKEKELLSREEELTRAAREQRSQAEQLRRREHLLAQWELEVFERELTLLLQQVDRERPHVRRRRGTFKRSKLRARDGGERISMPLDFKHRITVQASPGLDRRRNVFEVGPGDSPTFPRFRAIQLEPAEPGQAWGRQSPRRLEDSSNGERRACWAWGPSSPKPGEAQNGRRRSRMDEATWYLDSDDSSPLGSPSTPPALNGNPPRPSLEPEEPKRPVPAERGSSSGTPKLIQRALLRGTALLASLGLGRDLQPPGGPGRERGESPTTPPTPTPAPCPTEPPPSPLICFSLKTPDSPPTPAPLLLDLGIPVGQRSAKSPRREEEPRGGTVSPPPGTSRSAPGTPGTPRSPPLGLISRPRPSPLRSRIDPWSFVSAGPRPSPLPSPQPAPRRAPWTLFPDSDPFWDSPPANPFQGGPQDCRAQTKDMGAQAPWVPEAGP
Description: MLK3 Activity Inhibition Test
Activity test was carried out using the kit from Reaction Biology (CAT #: MLK3). The test uses enzyme Human MLK3 and substrates are MBP (Myelin Basic Protein, HGNC ID:6925) 10 μM and ATP 10 μM. Other reagents are the following: Base Reaction buffer; 20 mM Hepes (pH 7.5), 10 mM MgCl2, 1 mM EGTA, 0.02% Brij35, 0.02 mg/ml BSA, 0.1 mM Na3VO4, 2 mM DTT, 1% DMSO.
The reaction was carried out following the instructions of manufacturer. Briefly, kinase/substrate pairs were prepared in reaction buffer. Compounds were delivered into the reaction, followed 20 minutes later by addition of a mixture of ATP (Sigma, St. Louis Mo.) and ^33P ATP (Perkin Elmer, Waltham Mass.) to a final concentration of 10 μM. Reactions were carried out at room temperature for 120 min, followed by spotting of the reactions onto P81 ion exchange filter paper (Whatman Inc., Piscataway, N.J.). Unbound phosphate was removed by extensive washing of filters in 0.75% phosphoric acid. […] IC50 values and curve fits were obtained using Prism (GraphPad Software).

TYK2 = target: T5, TYK2 (Homo sapiens, UniProt P29597); test: Functional assay of protein kinases (Caliper mobility shift), TYK2; details: ATP 20 μM, 45 min incubation
T5 construct: purchased Carna Biosciences 08-147
T5 sequence (P29597 871-1187 limits assumed): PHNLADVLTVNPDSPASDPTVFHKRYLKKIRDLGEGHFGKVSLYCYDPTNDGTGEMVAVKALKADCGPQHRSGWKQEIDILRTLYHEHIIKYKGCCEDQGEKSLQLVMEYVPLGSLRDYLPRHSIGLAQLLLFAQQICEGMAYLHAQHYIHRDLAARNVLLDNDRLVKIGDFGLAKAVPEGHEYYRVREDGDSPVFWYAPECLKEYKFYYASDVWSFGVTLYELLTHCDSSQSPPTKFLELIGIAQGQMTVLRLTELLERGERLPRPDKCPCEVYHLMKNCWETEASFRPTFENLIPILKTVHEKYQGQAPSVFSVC
Description: as §1, §2, §3

T1 sequence (P52333 795-1124 limits assumed): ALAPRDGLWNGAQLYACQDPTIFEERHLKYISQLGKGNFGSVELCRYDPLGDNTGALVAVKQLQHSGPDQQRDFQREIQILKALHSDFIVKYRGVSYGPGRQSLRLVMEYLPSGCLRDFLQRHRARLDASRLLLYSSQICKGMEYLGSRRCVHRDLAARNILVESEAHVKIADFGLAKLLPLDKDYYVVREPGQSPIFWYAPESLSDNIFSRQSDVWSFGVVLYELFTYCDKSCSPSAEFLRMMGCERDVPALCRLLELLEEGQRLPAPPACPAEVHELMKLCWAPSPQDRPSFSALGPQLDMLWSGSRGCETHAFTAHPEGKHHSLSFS

Row | IC50 (JAK3) [nM] | IC50 (JAK1) [nM] | IC50 (JAK2) [nM] | IC50 (Human MLK3) [nM] | IC50 (TYK2) [nM] | SMILES
1 | < 100 | ≥ 1000 | ≥ 1000 | < 100 | < 100 | O=C(N[C@H]1CC[C@@H](C(=O)O)CC1)c1cccn2c(=O)c3cc(-c4ccc(F)cc4)ccc3nc12 [Example 16, (1S,4S)-4-(2-(4-fluorophenyl)-11-oxo-11H-pyrido[2,1-b]quinazoline-6-carboxamido)cyclohexane-1-carboxylic acid]
2 | < 100 | ≥ 1000 | ≥ 1000 | < 100 | < 100 | O=C(N[C@H]1CC[C@@H](C(=O)O)CC1)c1cccn2c(=O)c3cc(-c4ccncc4)ccc3nc12 [Example 17, (1S,4S)-4-(11-oxo-2-(pyridin-4-yl)-11H-pyrido[2,1-b]quinazoline-6-carboxamido)cyclohexane-1-carboxylic acid]
3 | 100 to 1000 | ≥ 1000 | ≥ 1000 |  | 100 to 1000 | O=C(NC1CCC(C(=O)O)CC1)c1cccn2c(=O)c3cc(Cl)ccc3nc12 (stereo not drawn) [Example 23, 4-(2-chloro-11-oxo-11H-pyrido[2,1-b]quinazoline-6-carboxamido)cyclohexane-1-carboxylic add]
4 | 100 to 1000 | ≥ 1000 | ≥ 1000 |  | 100 to 1000 | O=C(NC1CCC(C(=O)O)CC1)c1cccn2c(=O)c3cc(Br)ccc3nc12 (stereo not drawn) [Example 24, 4-(2-bromo-11-oxo-11H-pyrido[2,1-b]quinazoline-6-carboxamido)cyclohexane-1-carboxylic acid]

The next lines start with the compound.

Row | SMILES | IC50 (JAK3) [nM] | IC50 (JAK1) [nM] | IC50 (JAK2) [nM] | IC50 (Human MLK3) [nM] | IC50 (TYK2) [nM]
5 | O=C(N[C@H]1CC[C@@H](C(=O)O)CC1)c1cccn2c(=O)c3cc(C4CC4)ccc3nc12 [Example 3, (1S,4S)-4-(2-cyclopropyl-11-oxo-11H-pyrido[2,1-b]quinazoline-6-carboxamido)cyclohexane-1-carboxylic acid] | < 100 | ≥ 1000 | ≥ 1000 | < 100 | < 100
6 | O=C(NC12CCC(C(=O)O)(CC1)CC2)c1cccn2c(=O)c3cc(C4CC4)ccc3nc12 [Example 6, 4-(2-cyclopropyl-11-oxo-11H-pyrido[2,1-b]quinazoline-6-carboxamido)bicyclo[2.2.2]octane-1-carboxyli acid] | 100 to 1000 | ≥ 1000 | ≥ 1000 | < 100 | 100 to 1000
7 | Cc1cc(C(=O)NC2CCC(C(=O)O)CC2)c2nc3ccccc3c(=O)n2c1 (stereo not drawn) [Example 10, 4-(8-methyl-11-oxo-11H-pyrido[2,1-b]quinazoline-6-carboxamido)cyclohexane-1-carboxylic acid] | 100 to 1000 | ≥ 1000 | ≥ 1000 | ≥ 1000 | < 100
8 | O=C(N[C@H]1CC[C@@H](C(=O)O)CC1)c1cccn2c(=O)c3ccccc3nc12 [Example 13, (1S,4S)-4-(11-oxo-11H-pyrido[2,1-b]quinazoline-6-carboxamido)cyclohexane-1-carboxylic add] | 100 to 1000 | ≥ 1000 | ≥ 1000 | 100 to 1000 | 100 to 1000
9 | O=C(N[C@H]1CC[C@@H](C(=O)O)CC1)c1cccn2c(=O)c3cc(N4CCOCC4)ccc3nc12 [Example 14, (1S,4S)-4-(2-morpholino-11-oxo-11H-pyrido[2,1-b]quinazoline-6-carboxamido)cyclohexane-1-carboxylic acid] | < 100 | ≥ 1000 | ≥ 1000 | < 100 | < 100
10 | COc1ccc2nc3c(C(=O)NC4CCC(C(=O)O)CC4)cccn3c(=O)c2c1 (stereo not drawn) [Example 20, 4-(2-methoxy-11-oxo-11H-pyrido[2,1-b]quinazoline-6-carboxamido)cyclohexane-1-carboxylic acid] | < 100 |  |  | < 100 | 100 to 1000
11 | N#Cc1ccc2nc3c(C(=O)NC4CCC(C(=O)O)CC4)cccn3c(=O)c2c1 (stereo not drawn) [Example 21, 4-(2-cyano-11-oxo-11H-pyrido[2,1-b]quinazoline-6-carboxamido)cyclohexane-1-carboxylic add] | 100 to 1000 | ≥ 1000 | ≥ 1000 | ≥ 1000 | ≥ 1000
